Data on seven compounds can be found in patent US10941158B2, “Pyrazole ACC inhibitors and uses thereof” (Gilead Apollo, LLC, priority 2015, dated 2021).

The structures appear in SMILES notation. pIC50: −log10 of the molar value. Converted amounts (≈) assume the structure as drawn. Where two headings read alike, the source gives them in different places.

Test [1] concerns the target fungal (fACC2) ACC2 (UniProt Q00955). The settings on record: read-out: fACC2 IC50; fungal ACC2, ADP-Glo. A general note: ADP-Glo first removes unused ATP, then detects ADP through luciferase.
The test system of test [2] is Septoria tritici (St). In words: Growth inhibition assay of fungal pathogens. The format is cell-based. The settings on record: for IC90: Zymoseptoria tritici, read-out: Concentration at 90% Inhibition St. In short, it runs like this: (§1)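 Percent growth inhibition was derived from 48 h OD600 and visual scores relative to 2% DMSO, with blank background subtraction. Fungi were grown from spores in 17% V8 liquid medium, R. solani from 1.5 mm plugs in ¼ PDB, with compound at final 50/10/2 or 2/0.4/0.08 ppm.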

The subject of test [3] is Botrtyis cinerea (Bc). In words: Growth inhibition assay of fungal pathogens. In kind it is cell-based. The settings on record: 48 h, read-out: Concentration at 90% Inhibition Bc. In short, it runs like this:
(§2)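 Liquid-culture assay in which test compounds are applied at three final concentrations (50, 10, 2 ppm or 2, 0.4, 0.08 ppm). Inoculum levels follow 48 h growth curves for each fungus. Growth is monitored by OD600 and by eye, and the 48 h values give % inhibition against DMSO.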

Test [4] concerns Diplodia maydis (Dm). The experiment in a line: Growth inhibition assay of fungal pathogens. In kind it is cell-based. The settings on record: Stenocarpella maydis, 48 h, read-out: Concentration at 90% Inhibition Dm. The gist of the method: as §2
The subject of test [5] is Fusarium virguliforme (Fv). In words: Growth inhibition assay of fungal pathogens. In kind it is cell-based. The settings on record: 48 h. In short, it runs like this: as §1
Test [6] has as its system Rhizoctonia solani (Rs). The experiment in a line: Growth inhibition assay of fungal pathogens. In kind it is cell-based. The settings on record: 48 h, read-out: Concentration at 90% Inhibition Rs. The gist of the method: as §2
Test [7] relates to Phytophthora capsici (Pc). The experiment in a line: Growth inhibition assay of fungal pathogens. The format is cell-based. The settings on record: for IC90: Phytophthora capsici, read-out: Concentration at 90% Inhibition Pc. The gist of the method:
as §1

Test [8] deals with Fusarium moniliforme (Fm). The experiment in a line: Growth inhibition assay of fungal pathogens. The settings on record: Fusarium verticillioides, 48 h, read-out: Concentration at 90% Inhibition Fm. In kind it is cell-based. The gist of the method: as §2
Test [9] relates to Collectotrichum graminicola (Cg). The experiment in a line: Growth inhibition assay of fungal pathogens. In kind it is cell-based. The settings on record: 48 h, read-out: Concentration at 90% Inhibition Cg. The gist of the method: as §1
Test [10] deals with C. parapsilosis ATCC 22019. In words: Anti-Fungal (Candida) Activity Assay, broth microtiter MIC. The format is cell-based. The settings on record: Lodderomyces parapsilosis, read-out: MIC C. parapsilosis ATCC 22019. In short, it runs like this:
(§3)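 Strains plated from frozen stock onto Sabouraud dextrose agar, 35 °C, 24 h; colonies suspended directly in RPMI 1640/MOPS, density from standard curves; CLSI M27-A3 microdilution; 48 h read, visual vs growth control.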

Test [11] concerns C. albicans ATCC 90028. The description is as above. The format is cell-based. The settings on record: read-out: MIC C. albicans ATCC 90028. In short, it runs like this:
as §3

The subject of test [12] is C. krusei ATCC 6258. The description is as above. The settings on record: Pichia kudriavzevii, read-out: MIC C. krusei ATCC 6258. In kind it is cell-based. The gist of the method: as §3
The target of test [13] is human (hACC2) ACC2 (Homo sapiens, UniProt O00763). In words: In vitro Acetyl-CoA Carboxylase (ACC) inhibition assay (ADP-Glo), hACC2. The format is biochemical. As to the method: The detailed procedure is as follows. […] 10 μL ADP glo reagent was added. […] 20 μL kinase detection reagent was added.
Chain of human (hACC2) ACC2 (O00763 whole entry): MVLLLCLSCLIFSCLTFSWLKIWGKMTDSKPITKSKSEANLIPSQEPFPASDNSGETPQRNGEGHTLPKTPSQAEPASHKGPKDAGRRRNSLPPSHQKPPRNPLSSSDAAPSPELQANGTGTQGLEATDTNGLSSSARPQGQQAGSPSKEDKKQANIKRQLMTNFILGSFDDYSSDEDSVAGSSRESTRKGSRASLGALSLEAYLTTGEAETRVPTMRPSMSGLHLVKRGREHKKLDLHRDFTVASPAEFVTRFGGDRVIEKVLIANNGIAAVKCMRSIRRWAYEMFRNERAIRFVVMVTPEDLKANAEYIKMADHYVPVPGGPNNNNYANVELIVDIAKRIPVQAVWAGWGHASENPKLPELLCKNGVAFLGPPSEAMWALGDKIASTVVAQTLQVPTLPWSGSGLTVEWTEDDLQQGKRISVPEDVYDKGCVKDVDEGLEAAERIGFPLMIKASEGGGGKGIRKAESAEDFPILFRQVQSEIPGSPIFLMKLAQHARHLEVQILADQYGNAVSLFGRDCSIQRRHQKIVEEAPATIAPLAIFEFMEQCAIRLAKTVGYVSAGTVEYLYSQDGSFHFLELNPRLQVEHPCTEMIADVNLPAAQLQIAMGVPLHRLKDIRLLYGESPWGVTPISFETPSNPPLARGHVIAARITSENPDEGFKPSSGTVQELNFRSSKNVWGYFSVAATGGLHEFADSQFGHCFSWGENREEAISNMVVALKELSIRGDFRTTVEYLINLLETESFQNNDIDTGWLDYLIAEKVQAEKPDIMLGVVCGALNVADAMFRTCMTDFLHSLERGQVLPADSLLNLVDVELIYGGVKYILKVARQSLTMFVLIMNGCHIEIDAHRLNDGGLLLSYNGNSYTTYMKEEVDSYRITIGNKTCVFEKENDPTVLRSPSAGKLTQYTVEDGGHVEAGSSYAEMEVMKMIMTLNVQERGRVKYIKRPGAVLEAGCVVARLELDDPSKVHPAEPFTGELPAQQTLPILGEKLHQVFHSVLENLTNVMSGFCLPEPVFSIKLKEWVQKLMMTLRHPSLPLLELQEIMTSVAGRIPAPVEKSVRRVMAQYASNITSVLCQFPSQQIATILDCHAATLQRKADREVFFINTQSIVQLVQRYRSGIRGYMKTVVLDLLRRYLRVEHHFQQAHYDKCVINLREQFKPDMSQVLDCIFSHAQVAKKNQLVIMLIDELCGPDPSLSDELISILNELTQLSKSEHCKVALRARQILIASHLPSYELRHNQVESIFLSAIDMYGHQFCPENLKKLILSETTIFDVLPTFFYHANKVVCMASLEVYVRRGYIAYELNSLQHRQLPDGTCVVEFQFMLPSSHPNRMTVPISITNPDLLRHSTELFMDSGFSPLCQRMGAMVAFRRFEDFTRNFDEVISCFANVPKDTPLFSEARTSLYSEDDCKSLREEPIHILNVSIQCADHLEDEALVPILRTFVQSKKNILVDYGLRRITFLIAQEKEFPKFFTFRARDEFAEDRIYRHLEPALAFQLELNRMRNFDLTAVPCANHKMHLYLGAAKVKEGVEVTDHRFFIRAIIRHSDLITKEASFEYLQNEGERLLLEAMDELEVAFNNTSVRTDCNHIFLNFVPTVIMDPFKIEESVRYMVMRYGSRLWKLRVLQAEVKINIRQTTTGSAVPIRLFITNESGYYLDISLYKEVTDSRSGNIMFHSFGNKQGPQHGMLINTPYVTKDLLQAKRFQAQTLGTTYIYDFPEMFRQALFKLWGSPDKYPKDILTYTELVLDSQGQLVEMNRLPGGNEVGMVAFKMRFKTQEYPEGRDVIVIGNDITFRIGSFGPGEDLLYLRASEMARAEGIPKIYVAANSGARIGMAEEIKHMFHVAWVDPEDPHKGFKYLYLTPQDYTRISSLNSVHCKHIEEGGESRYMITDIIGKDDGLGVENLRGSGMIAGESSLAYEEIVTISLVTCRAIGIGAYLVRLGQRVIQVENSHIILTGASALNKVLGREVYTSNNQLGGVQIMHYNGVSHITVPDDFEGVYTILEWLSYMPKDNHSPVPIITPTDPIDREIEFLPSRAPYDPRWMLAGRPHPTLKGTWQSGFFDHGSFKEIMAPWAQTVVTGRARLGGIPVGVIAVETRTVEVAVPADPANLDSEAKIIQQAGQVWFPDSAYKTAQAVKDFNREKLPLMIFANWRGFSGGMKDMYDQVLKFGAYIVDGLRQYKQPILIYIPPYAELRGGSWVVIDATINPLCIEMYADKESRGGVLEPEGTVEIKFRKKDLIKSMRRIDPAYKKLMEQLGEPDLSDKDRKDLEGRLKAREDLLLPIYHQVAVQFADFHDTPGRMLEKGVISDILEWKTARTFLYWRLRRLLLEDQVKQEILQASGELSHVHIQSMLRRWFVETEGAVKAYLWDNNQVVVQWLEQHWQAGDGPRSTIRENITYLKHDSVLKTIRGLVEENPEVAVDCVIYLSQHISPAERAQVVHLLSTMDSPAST
“NA” stands for “not assayed.”

Setting [14] is: ATCC22019, 3 replicates, MIC recorded at 48 h.
Setting [15] is: ATCC90028, 3 replicates, MIC recorded at 48 h.
Where [16] appears, read: ATCC6258, 3 replicates, MIC recorded at 48 h.

Chain of fungal (fACC2) ACC2 (Q00955 whole entry): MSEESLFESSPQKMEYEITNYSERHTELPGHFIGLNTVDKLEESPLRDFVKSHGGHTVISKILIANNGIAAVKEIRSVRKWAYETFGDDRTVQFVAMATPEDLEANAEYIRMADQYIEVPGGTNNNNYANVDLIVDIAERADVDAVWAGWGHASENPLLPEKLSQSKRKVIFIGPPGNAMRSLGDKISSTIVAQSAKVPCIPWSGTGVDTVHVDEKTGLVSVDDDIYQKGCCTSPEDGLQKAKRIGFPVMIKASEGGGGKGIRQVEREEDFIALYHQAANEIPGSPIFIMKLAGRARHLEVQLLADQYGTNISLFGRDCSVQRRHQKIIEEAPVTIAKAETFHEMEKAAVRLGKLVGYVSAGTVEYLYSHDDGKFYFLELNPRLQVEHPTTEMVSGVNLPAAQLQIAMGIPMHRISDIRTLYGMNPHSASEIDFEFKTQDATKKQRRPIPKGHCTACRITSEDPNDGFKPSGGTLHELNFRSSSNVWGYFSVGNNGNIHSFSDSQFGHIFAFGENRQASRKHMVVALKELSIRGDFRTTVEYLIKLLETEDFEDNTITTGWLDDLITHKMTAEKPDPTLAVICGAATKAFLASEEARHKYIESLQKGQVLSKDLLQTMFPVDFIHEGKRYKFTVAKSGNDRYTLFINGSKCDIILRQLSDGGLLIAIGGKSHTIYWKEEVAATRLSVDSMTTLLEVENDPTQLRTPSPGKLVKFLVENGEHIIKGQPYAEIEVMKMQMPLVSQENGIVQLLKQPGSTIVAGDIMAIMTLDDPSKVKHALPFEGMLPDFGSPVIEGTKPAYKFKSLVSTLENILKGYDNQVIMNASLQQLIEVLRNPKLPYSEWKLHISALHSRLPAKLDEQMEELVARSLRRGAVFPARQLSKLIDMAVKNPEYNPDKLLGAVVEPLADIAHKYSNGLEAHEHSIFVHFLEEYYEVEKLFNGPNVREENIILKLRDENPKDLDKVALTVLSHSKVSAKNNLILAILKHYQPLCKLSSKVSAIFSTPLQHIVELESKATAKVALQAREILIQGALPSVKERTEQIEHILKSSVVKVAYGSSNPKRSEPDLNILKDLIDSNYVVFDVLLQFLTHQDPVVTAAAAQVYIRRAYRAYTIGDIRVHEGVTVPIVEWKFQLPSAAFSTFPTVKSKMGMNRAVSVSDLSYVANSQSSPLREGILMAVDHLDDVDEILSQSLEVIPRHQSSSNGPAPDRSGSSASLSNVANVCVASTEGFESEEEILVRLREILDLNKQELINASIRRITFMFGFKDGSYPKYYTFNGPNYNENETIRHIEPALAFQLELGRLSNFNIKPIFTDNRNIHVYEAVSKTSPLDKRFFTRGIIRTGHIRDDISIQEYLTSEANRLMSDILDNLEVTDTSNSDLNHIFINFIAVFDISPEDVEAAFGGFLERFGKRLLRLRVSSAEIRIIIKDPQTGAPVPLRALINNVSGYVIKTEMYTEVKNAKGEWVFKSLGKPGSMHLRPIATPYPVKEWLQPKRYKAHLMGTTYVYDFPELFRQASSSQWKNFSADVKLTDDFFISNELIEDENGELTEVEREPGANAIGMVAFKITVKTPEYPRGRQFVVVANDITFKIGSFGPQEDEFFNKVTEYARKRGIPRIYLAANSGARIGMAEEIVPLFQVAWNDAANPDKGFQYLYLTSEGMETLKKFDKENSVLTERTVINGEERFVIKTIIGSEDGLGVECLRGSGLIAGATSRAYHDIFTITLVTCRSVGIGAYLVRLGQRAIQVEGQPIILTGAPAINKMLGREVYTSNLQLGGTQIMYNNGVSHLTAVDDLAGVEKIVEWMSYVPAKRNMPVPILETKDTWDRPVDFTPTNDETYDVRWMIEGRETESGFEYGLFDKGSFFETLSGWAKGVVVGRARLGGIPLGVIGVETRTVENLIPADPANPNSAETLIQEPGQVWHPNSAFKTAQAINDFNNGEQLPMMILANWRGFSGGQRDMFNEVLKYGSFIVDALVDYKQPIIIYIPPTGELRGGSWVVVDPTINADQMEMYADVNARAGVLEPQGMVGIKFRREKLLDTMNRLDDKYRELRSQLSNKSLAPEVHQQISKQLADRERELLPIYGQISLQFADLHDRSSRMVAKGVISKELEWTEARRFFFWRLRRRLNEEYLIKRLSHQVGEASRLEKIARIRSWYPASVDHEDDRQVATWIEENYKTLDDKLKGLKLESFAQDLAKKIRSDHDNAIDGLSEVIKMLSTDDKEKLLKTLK

Turning to `COCCO[C@@H](Cn1c(=O)n(C(C)(C)C(=O)NC2CCCCC2)c(=O)c2c(C)c(-n3cccn3)sc21)c1cc(F)ccc1OC` [Compound I-46, (R)—N-cyclohexyl-2-(1-(2-(5-fluoro-2-methoxyphenyl)-2-(2-methoxyethoxy)ethyl)-5-methyl-2,4-dioxo-6-(1H-pyrazol-1-yl)-1,4-dihydrothieno[2,3-d]pyrimidin-3(2H)-yl)-2-methylpropanamide], the figures for the pIC50 in test [1] and in test [13] were 8.52 to 9.22 and below 7.40, respectively. The IC90 in test [2] (48 h, Table 4b) was above 50 µg/mL; in test [3] (Table 4b), 10 µg/mL (≈ 15.6 µM); in test [4] (Table 4b), above 50 µg/mL; in [5] (read-out: Concentration at 90% Inhibition Fv, Table 4b, 48 hours), above 50 µg/mL; in test [6] (Table 4b), above 50 µg/mL; in test [7] (48 h, Table 4b), above 50 µg/mL. The IC90 was 2 µg/mL (≈ 3.12 µM) in test [8] and above 50 µg/mL in test [9] (Table 4b). In addition, the MIC in [10] (ATCC22019, 48 h) was above 4.1 µg/mL; in [11] (ATCC90028, 48 h), above 4.1 µg/mL; in test [12] (ATCC6258, 48 h), above 4.1 µg/mL.

On to `COc1ccc(F)cc1[C@H](Cn1c(=O)n(C(C)C(=O)N2CCCC2)c(=O)c2c(C)c(-n3cccn3)sc21)OC(C)C` (stereo partly drawn) [Compound I-32, 1-((R)-2-(5-fluoro-2-methoxyphenyl)-2-isopropoxyethyl)-5-methyl-3-(1-oxo-1-(pyrrolidin-1-yl)propan-2-yl)-6-(1H-pyrazol-1-yl)thieno[2,3-d]pyrimidine-2,4(1H,3H)-dione], for which the pIC50 is 8.52 to 9.22 in [1] and 8.00 to 8.52 in test [13]. For the same compound, the “Concentration at 90% Inhibition St” value in [2] (Table 4b, 48 hours) is recorded as “D (“D” provided a compound concentration of >50 ppm at 90% inhibition of fungal pathogens)”. Also, the IC90 in test [2] (Table 4a, 48 hours) was above 50 µg/mL; in test [3] (Table 4a), 0.4 µg/mL (≈ 0.685 µM); in test [3] (Table 4b), 0.4 µg/mL (≈ 0.685 µM); in test [4] (Table 4a), 2 µg/mL (≈ 3.43 µM); in test [4] (Table 4b) it was 2 µg/mL (≈ 3.43 µM); in [5] (Table 4a, 48 hours, read-out: Concentration at 90% Inhibition Fv), 0.4 µg/mL (≈ 0.685 µM). For the same compound, the IC90 in [5] (Table 4b, 48 hours, read-out: Concentration at 90% Inhibition Fv) was 0.4 µg/mL (≈ 0.685 µM); in [6] (Table 4a), 2 µg/mL (≈ 3.43 µM); in [6] (Table 4b), 2 µg/mL (≈ 3.43 µM); in test [7] (Table 4a, 48 hours), above 50 µg/mL; in test [8] (Table 4a, 48 hours), 0.08 µg/mL (≈ 0.137 µM); in test [8] (Table 4b, 48 hours), 0.08 µg/mL (≈ 0.137 µM). The IC90 in test [9] (Table 4a) and in test [9] (Table 4b) was 0.4 µg/mL (≈ 0.685 µM) throughout. Besides, the “Concentration at 90% Inhibition Pc” value in [7] (Table 4b, 48 hours) is reported as “D (“D” provided a compound concentration of >50 ppm at 90% inhibition of fungal pathogens)”. In addition, the results for the MIC in [10] (setting [14]), in test [11] (setting [15]) and in test [12] (setting [16]) were above 4.1 µg/mL, 2.1 to 4 µg/mL (≈ 3.6 to 6.85 µM) and 2.1 to 4 µg/mL (≈ 3.6 to 6.85 µM), respectively.

On to `COc1ccc(F)cc1[C@H](Cn1c(=O)n(C(C)C(=O)NC(C)C)c(=O)c2c(C)c(-n3cccn3)sc21)OCCO` (some centres unmarked) [Compound I-59], for which the pIC50 in [1] was 8.52 to 9.22; in [13] it was 8.00 to 8.52. Further, the MIC in test [10] (setting [14]), in [11] (setting [15]) and in [12] (setting [16]) was above 4.1 µg/mL each time.

For the compound `Cc1c(-n2cccn2)sc2c1c(=O)n(C(C)(C)C(=O)N1CCCC1)c(=O)n2C[C@H](OC1CCOCC1)c1cc(F)ccc1OCC1COC1` [Compound I-53], the pIC50 in [1] was 8.52 to 9.22; in [13] it was 8.00 to 8.52. In addition, the MIC in test [10] (setting [14]) was 2.1 to 4 µg/mL (≈ 3.02 to 5.75 µM); in test [11] (setting [15]), above 4.1 µg/mL; in test [12] (setting [16]), 1.1 to 2 µg/mL (≈ 1.58 to 2.87 µM).

For `COc1ccc(F)cc1[C@H](Cn1c(=O)n(C(C)C(=O)O)c(=O)c2c(C)c(-n3cccn3)sc21)OCCO` (some centres unmarked) [Compound I-60], the figures for the pIC50 in test [1] and in [13] were 8.52 to 9.22 and 8.00 to 8.52, respectively. The MIC in test [10] (setting [14]), in test [11] (setting [15]) and in [12] (setting [16]) was above 4.1 µg/mL in each case.

For the compound `COCCO[C@@H](Cn1c(=O)n(C(C)C(=O)NC(C)C)c(=O)c2c(C)c(-n3cccn3)sc21)c1cc(F)ccc1OC` (some centres unmarked) [Compound I-55], the pIC50 in [1] is 8.52 to 9.22; in test [13], 8.00 to 8.52. The MIC in test [10] (setting [14]), in [11] (setting [15]) and in [12] (setting [16]) was 2.1 to 4 µg/mL (≈ 3.57 to 6.81 µM) throughout.

Take `COc1ccccc1[C@H](Cn1c(=O)n(C(C)(C)C(=O)NC(C)C)c(=O)c2c(C)c(-n3cccn3)sc21)OCCC#N` [Compound I-80, (R)-2-(1-(2-(2-cyanoethoxy)-2-(2-methoxyphenyl)ethyl)-5-methyl-2,4-dioxo-6-(1H-pyrazol-1-yl)-1,4-dihydrothieno[2,3-d]pyrimidin-3(2H)-yl)-N-isopropyl-2-methylpropanamide]: the pIC50 in test [1] was 8.00 to 8.52; in test [13] it was 7.40 to 8.00. Further, the MIC is above 4.1 µg/mL in [10] (ATCC22019, 48 h); above 4.1 µg/mL in test [11] (ATCC90028, 48 h); above 4.1 µg/mL in test [12] (ATCC6258, 48 h).

One may read the pIC50 as −log10 of the IC50, conventionally taken in molar units. In general, MIC refers to the lowest concentration found to suppress growth.
